Test results as given in US5401771A, “Method of combatting household insects” (priority 1992, dated 1995).

Legend:
[1] = system: housefly; test: Study of the killing effect on the housefly (direct spraying, Kearns and March chamber); format: in vivo; conditions: for KT50 (time where 50% of the insects were killed): 4-day old female houseflies, direct spraying, dose 0.25 g/l, Isopar L with 5% acetone
Protocol: A. Study of the killing effect on the housefly.
The insects used were 4-day old female houseflies and the operation was carried out by direct spraying at a concentration of 0.25 g/1 in a Kearns and March chamber. The tested product was dissolved in Isopar L (petroleum solvent) with 5% acetone. 2 ml of solution were sprayed per second and 50 insects were used per treatment Checks were carried out every minute for 10 minutes, then after 15 minutes. The (KT50) time in minutes where 50% of the insects were killed was determined and the results are in Table I.

[2] = Acute toxicity on mammals by intravenous route; format: in vivo, rats; conditions: rat, in vivo, rats, vehicle PEG 300, read-out: LD50 I.R. (intravenous route)
Protocol: (§1) C. Acute toxicity on mammals
(§2) type: rats, vehicle: PEG 300.
(§3) The results were expressed in LD50 mg/kg and the results obtained are as follows: […]

[3] = system: rats; test: Acute toxicity on mammals by intravenous route; format: in vivo; conditions: relative to C (cis E)
Protocol: as §1, §2, §3

[4] = Acute toxicity on mammals by oral route; format: in vivo, rats; conditions: rat, in vivo, rats, vehicle corn oil, read-out: LD50 O.R. (oral route)
Protocol: as §1
(§4) type: rats, vehicle: corn oil.
as §3

[5] = system: rats; test: Acute toxicity on mammals by oral route; format: in vivo; conditions: relative to C (cis E)
Protocol: as §1, §4, §3

[6] = system: cockroaches (Blattella germanica); test: Study of the knock-down effect on cockroaches (direct spraying); format: in vivo; conditions: for percentage of cockroaches knocked down at 100 µg/mL / percentage of cockroaches knocked down at 500 µg/mL: Blattella germanica, 5 min, after 5 minutes, 12-week old males, read-out: KD (percentage of cockroaches knocked down), printed % KILLED; for percentage of cockroaches knocked down at 100 µg/mL: 100 mg/l; for percentage of cockroaches knocked down at 500 µg/mL: 500 mg/l
Protocol: B. Study of the knock-down effect on cockroaches
The test was carried out on 12-week old male cockroaches (Blattella germanica) and the operation was carried out by direct spraying in a 13.5 cm diameter glass chamber. The product tested was dissolved in Isopar and 0.75 ml of solution was sprayed for 2.5 seconds on 20 cockroaches having been placed beforehand in the chamber. The KD (percentage of cockroaches knocked down) after 5 minutes at a dose of 500 mg/1 was determined and the products corresponding to 100% of KD insects at this does were evaluated at a dose of 100 mg/1 by the same protocol and the results are in Table II.

[7] = conclusion in words, equivalent notably to C (cis E)

Compound | KT50 (time where 50% of the insects were killed) [1] [min] | LD50 [2] [mg/kg] | toxicity on mammals lower than that of C (cis E), intravenously [3] | killing activity on flies [1, 7] | LD50 [4] [mg/kg] | toxicity on mammals lower than that of C (cis E), orally [5] | percentage of cockroaches knocked down at 100 µg/mL [6] [%] | killing activity on cockroaches [6, 7] | percentage of cockroaches knocked down at 500 µg/mL [6] [%]
C=CCC1=C(C)C(OC(=O)[C@@H]2[C@@H](C=C(C)C)C2(C)C)CC1=O (stereo partly drawn) [Bioallethrin] | 10 |  |  |  |  |  |  |  | 
COC(=O)/C(F)=C/[C@@H]1[C@@H](C(=O)O[C@H](C#N)c2cccc(Oc3ccccc3)c2)C1(C)C [Product A, (S) α-cyano-3-phenoxy-benzyl(1R, trans) 2,2-dimethyl-3-[(ΔZ) 2-fluoro-3-oxo-3-methoxy-propenyl]-cyclopropane carboxylate] | 2.7 | ~10 | at least 20 times | good killing activity | > 2000 | at least 20 times | 100 | good killing activity | 
COC(=O)/C(F)=C\[C@@H]1[C@@H](C(=O)O[C@H](C#N)c2cccc(Oc3ccccc3)c2)C1(C)C [Product B] |  | 2.5 to 5 |  |  | > 200 |  | 47 |  | 
COC(=O)/C(F)=C\[C@H]1[C@@H](C(=O)O[C@H](C#N)c2cccc(Oc3ccccc3)c2)C1(C)C [Product C] | 2.7 | 0.1 to 0.5 |  |  | ~100 |  | 95 |  | 
COC(=O)/C(F)=C/[C@H]1[C@@H](C(=O)O[C@H](C#N)c2cccc(Oc3ccccc3)c2)C1(C)C [Product D] | 3.7 | 2.5 to 7.5 |  |  | > 200 |  |  |  | 90
CC(C)=CC1C(C(=O)OCN2C(=O)C3=C(CCCC3)C2=O)C1(C)C (stereo not drawn) [TETRAMETHRIN, Tetramethrin] |  |  |  |  |  |  |  |  | 70
